Test results from US20150190421A1, “POLOXAMERS FOR THE IMPROVEMENT OF RESPIRATORY FUNCTION” (PHRIXUS PHARMACEUTICALS, INC., priority 2012, published 2015).
Entries after “also recorded” stand apart in the source; their conditions may differ. Marks after values point to notes of the source that are not given here.

Assays:
[1] = tested on: mdx mouse model of Duchenne Muscular Dystrophy; experiment: Whole Body Plethysmography respiration monitoring, mdx mice, 22 weeks daily s.q. dosing; assay type: in vivo
Method: Animals. Male C57BL/10SnJ, hereafter referred to as wild-type (WT), and male mdx C57B1/10ScSn-Dmdmdx mice were used in the study. All protocols were approved by the University of Michigan (UM) UCUCA and all studies were performed in facilities run by the University of Michigan Unit of Laboratory Animal Medicine. […] Mice were purchased from Jackson Laboratories and aged in UM facilities. All ages given are ±2 weeks. Mice were randomized into groups upon receipt from Jackson Laboratories in order to minimize the need for additional cages. […] All compounds were administered subcutaneously.
Respiration was monitored using a Buxco Whole Body Plethysmography (WBP) monitoring chambers for mouse Cat. No. PLY4211 (Buxco Research Systems, Wilmington, N.C.) according to the manufacturer's instructions. In this protocol animals are unrestrained and un-anesthetized. Monitoring was performed in the room in which the animals were housed. The mice were monitored for 2 months prior to initiation of treatment to acclimate the mice to the procedure and establish baseline respiratory parameters done with the last weeks reading prior to initiation of dosing. Mice were randomized into groups based on tidal volume measurements. Upon initiation of dosing, mice were monitored every 2 weeks. Mice were placed in monitoring chambers and allowed to acclimate for 15 minutes prior to recording respiratory parameters. Respiration was then monitored for 10 minutes. Each mouse was monitored in the same chamber for each reading throughout the study to minimize variability.
During acclimation and measurements, the room door was shut and technician movement and room noise was kept to a minimum to allow for complete acclimation. […] Chambers were wiped clean between animals. Data was monitored and collected using FinePoint software (Cat. No. SFT4000) purchased from Buxco Research Systems (Wilmington, N.C.). […] Comparisons between groups of daily, every other day or weekly dosed animals were done by one-way ANOVA using the Neumann-Keuls post-hoc test. Significance was P<0.05. N=10-12 animals per group.
Abbreviations used include the following (units): F, respiration rate (breaths/minute), TV, tidal volume, (ml); TV/BWT, ratio of tidal volume to body weight, (mL/kg); MV, minute volume, (mL/min); Penh, enhanced pause, (no units); Rpef, the ratio of the time from start of expiration to peak expiratory flow to Te (no units); PIF, peak inspiratory flow, (mL sec); PEF, peak expiratory flow, (mL/sec); Te, expiratory time (sec); Ti, inspiratory time, (sec); Tr, relaxation time, (sec).
Respiration was monitored every 2 weeks by WBP.

[2] = tested on: diaphragm muscle of mdx mice; experiment: Diaphragm histology (centralized nuclei, fiber size and density, fibrosis), mdx mice; assay type: in vivo, mouse; details: prednisone 1 mg/kg QD s.q., 22 weeks
Method: Analysis of centralized nuclei. One marker of degeneration is the amount of compensatory regeneration occurring within the muscle. Since newly regenerating fibers have centrally located nuclei, the percentage of fibers with centralized nuclei (CN) from the diaphragm of each animal was determined (FIG. 2A).
Analysis of fiber size and density. The cross-sectional area of regenerating or recently regenerated fibers is expected to be smaller than that of mature muscle fibers. The cross sectional area of approximately 50 muscle fibers was measured from each mouse (600 fibers/group).
Analysis of fibrosis. Fibrosis was measured as the percentage of […] area/total area in Masson's trichrome stained sections.

[3] = Table 3, prednisone 1 mg/kg daily, 22 wks, mean ± S.D.
[4] = prednisone 1 mg/kg QD s.q., 22 weeks, mean ± S.D.

C[C@]12C=CC(=O)C=C1CC[C@@H]1[C@@H]2C(=O)C[C@@]2(C)[C@H]1CC[C@]2(O)C(=O)CO [Prednisone, prednisone]
TV, 22 wks [1, 3]: 0.332 ± 0.021 mL
TV/BW, 22 wks [1, 3]: 9.9 ± 1.2 mL/kg
increase in TV/BW compared with mdx saline (cause) ([1]; prednisone 1 mg/kg QD s.q., 22 weeks): due to a loss of body weight and not due to improvement in TV
F (respiration rate) [1, 4]: 328 ± 30 breaths/min
MV (minute volume) [1, 4]: 107 ± 11^b ml/min
PEF (peak expiratory flow) [1, 4]: 4.2 ± 0.4^b mL/sec
PIF (peak inspiratory flow) [1, 4]: 8.3 ± 0.8^c mL/sec
Penh (enhanced pause) [1, 4]: 0.393 ± 0.080
Rpef [1, 4]: 0.496 ± 0.085
TV (tidal volume) [1, 4]: 0.332 ± 0.021^c mL
Ti (inspiratory time) [1, 4]: 0.068 ± 0.006 s
Tr (relaxation time) [1, 4]: 0.094 ± 0.018 s
percentage of fibers with centralized nuclei (CN), diaphragm [2]: nearly the same percentage of fibers with CN as the mdx saline group; also recorded: higher percentage of muscle fibers in the regeneration process than in the P-188 treated groups
